Measurements reported in patent US20130310347A1, “MULTI-MODALITY MOLECULAR IMAGING HIGH-THROUGHPUT ASSAY FOR IDENTIFYING HEAT SHOCK PROTEIN 90 (HSP90) INHIBITORS” (The Board of Trustees of the Leland Stanford Junior …, priority 2012, published 2013).

Tests used:
[1] = tested on: Hsp90 client proteins (Raf-1, total and phosphorylated Akt); assay: Western blotting of Hsp90 client proteins in 293T cells; type: cell-based, human; conditions: 2 μM, 24 h, positive control
Description: FIG. 5A is a digital image of a western blot analysis illustrating the effect of lead compounds on the expression of Hsp90 client proteins. 293T cells stably expressing Hsp90(α/β)/p23 split reporters were treated with carrier control or compounds CP1, CP9, or CP18 (5 μM each) for 24 h. The known Hsp90 inhibitor PU-H71 (2 μM) was used as a positive control. The expression of Hsp90 client proteins (Raf-1, total and phosphorylated Akt) was determined by western blotting. α-Tubulin was used as a loading control.
Cells treated with PU-H71 (2 μM) served as a positive control.
Cells treated with 2 μM of PU-H71 served as a positive control. Western blotting of Hsp70, phosphorylated and total Akt and co-immunoprecipitation of Hsp90(α/β)/p23 interactions was performed as described Inglese et al., (2006) Proc. Nat. Acad. Sci. U.S.A. 103: 11473-11478, incorporated herein by reference in its entirety. The expression of Raf-1 was determined using rabbit polyclonal antibodies against Raf-1 (0.5 μg/ml, Abcam).

[2] = tested on: DOX-resistant V79/ADR lung cancer cells; assay: Sensitivity to DOX, Alamar Blue assay; type: cell-based; conditions: DOX 0.31-10 μM with inhibitor (CP9 8 μM), 24 h
Description: FIGS. 13A-13C illustrate the inhibition of cell proliferation of DOX-resistant V79/ADR lung cancer cells by CP9 and the Hsp90 inhibitor PU-H71 in cell culture. V79 lung cancer cells and […] cells that are resistant to DOX were treated with DOX (0.31-10 μM) in the presence or absence of CP9 (8 μM) for 24 h before determination of cell number by an Alamar Blue assay.
Both Hsp90 isoforms (α and β) are expressed in cancer cells, but Hsp90β is constitutively expressed, whereas the expression of Hsp90α is highly inducible during stress and drug treatment. Using the genetically encoded split Renilla reporter system according to the disclosure, it was possible to decipher the individual contributions of each isoform in determining the sensitivity of Hsp90 inhibitors. It was reported that the transcription of MDR1 is regulated by HSF-1, which in turn is regulated by Hsp90α (Trepel et al., (2010) Nat. Rev. Cancer 10: 537-549). To determine the biological significance of CP9 selectivity in inhibiting Hsp90α/p23 interactions, V79 lung cancer cells and V79/ADR cells that overexpress multidrug-resistant protein and are insensitive to growth inhibition by doxorubicin (DOX) were used. V79 and V79/ADR cells were treated with DOX alone or in the presence of CP9. On the other hand, the addition of CP9 sensitized V79/ADR cells to DOX, as shown by the decrease in cell proliferation relative to treatment with DOX alone, as shown in FIG. 13B. […] The results also are consistent with the observation that derivatives of Hsp90 inhibitor peptides sensitize cancer cells with overexpression of MDR to epirubicin (a class of anthracyclines that includes DOX) (Molnar et al., (2007) In Vivo 21: 429-433).

Which results are given for `CC(C)NCCCn1c(Sc2cc3c(cc2I)OCO3)nc2c(N)ncnc21` [PU-H71, reference compound]?
levels of Hsp90 client proteins (pAkt/total Akt, Raf-1) [1]: decreased levels of Raf-1, pAkt and total Akt; sensitivity of drug-resistant V79/ADR cells to DOX [2]: restored the sensitivity
